Structures are written as SMILES.

What all share (format): in vivo, Balb/c mice
Assay [1] deals with neutrophil recruitment in the back skin. Kind of assay: Immunohistochemical staining of neutrophil recruitment in back skin. The settings on record: PLAG 250 mg/kg/day oral day 0 to day 4 with Aldara cream 40 mg/day. From the text:
(§1) In order to confirm the preventive and therapeutic effects of psoriasis by 1-palmitoyl-2-linoleoyl-3-acetylglycerol (EC-18 or PLAG), imiquimod (hereinafter, referred to as IMQ), which is commonly used to induce skin inflammation i.e., psoriasis, such as infiltration of immune cells, epidermal hyperplasia, etc., was used as a ligand for TLR7 and TLR8 to carry out an experiment using psoriasis-induced mouse models. As an experiment model, 6 to 8-week-old female Balb/c-based mice (KOATECH, Pyeongtaek, Korea) were maintained under a specific pathogen free (SPF) environment and used. PLAG (ENZYCHEM LIFESCIENCES, Korea) was prepared before in vivo or in vitro treatment. Also, statistical analysis was performed using a paired t-test.
(§2) Mice were randomly divided into three groups: control group, psoriasis-induced group, and PLAG group. As the IMQ, Aldara cream (3M Health Care Limited, UK) containing 5% of IMQ was used.
(§3) For 5 days from day 0 to day 4, the control group was treated with vaseline (Unilever, UK) and PBS, the psoriasis-induced group was treated with Aldara cream and PBS, and the PLAG group was treated with Aldara cream and PLAG. Vaseline and Aldara cream were applied to the back of mice at a dose of 40 mg/day, and PBS and PLAG were orally administered at a dose of 250 mg/kg/day. On Day 5, which was the 6th day, the mice were sacrificed. […]

In assay [2] the test system is IL-17. Description: Immunohistochemical staining of IL-17 expression in IMQ-induced psoriatic skin. The settings on record: PLAG 250 mg/kg/day oral day 0 to day 4 with Aldara cream 40 mg/day; back skin.
From the text: as §1, §2, §3

Assay [3] has as its system psoriasis-induced mouse models (IMQ). Description: Keratinization and thickness of back skin of IMQ-induced psoriasis mice. The settings on record: vs psoriasis-induced group.
From the text: as §1
Mice were randomly divided into three groups: control group, psoriasis-induced group, and PLAG group. As the IMQ, Aldara cream (3M Health Care Limited, UK) containing 5% of IMQ was used. […]
In order to investigate whether PLAG prevents the progression of psoriasis, psoriasis was induced using IMQ cream (Aldara cream) as in Example 1. […] Subsequently, for the measurement of thickness of back skin, the back skin was removed, and the thickness of the removed back skin was measured using a caliper. The thickness of the measured back skin is shown in the graph of FIG. 3(B).

For assay [4] the test system is unchanged. Kind of assay: H&E histology of back skin (IMQ-induced chronic inflammatory skin disorder). The settings on record: PLAG 250 mg/kg/day oral day 0 to day 4 with Aldara cream 40 mg/day.
From the text: as §1, §2
For 5 days from day 0 to day 4, the control group was treated with vaseline (Unilever, UK) and PBS, the psoriasis-induced group was treated with Aldara cream and PBS, and the PLAG group was treated with Aldara cream and PLAG. Vaseline and Aldara cream were applied to the back of mice at a dose of 40 mg/day, and PBS and PLAG were orally administered at a dose of 250 mg/kg/day. On Day 5, which was the 6th day, the mice were sacrificed.
The thickness of the back skin of the mice of Example 1 was stained with the following H&E (Hematoxylin and Eosin) staining method, and histologically observed and evaluated under an optical microscope (Olympus, Tokyo, Japan) 5. The H&E staining method is as follows:
The back skin tissue of the mice was fixed in a 10% buffered formalin solution for 24 hours, embedded in paraffin and cut into 4 μm-thick sections. After removing paraffin and rehydrating the sections, the sections were stained with hematoxylin and eosin.

Assay [5] shares this test system. Kind of assay: Size and weight of spleen in IMQ-induced psoriasis mice. To be noted: PLAG 250 mg/kg/day oral day 0 to day 4 with Aldara cream 40 mg/day, vs control group.
From the text: as §1, §2
For 5 days from day 0 to day 4, the control group was treated with vaseline (Unilever, UK) and PBS, the psoriasis-induced group was treated with Aldara cream and PBS, and the PLAG group was treated with Aldara cream and PLAG. […]
The size of the spleen removed from the mice of Example 1 was measured using a ruler, and the weight was measured using a scale.

Turning to `CCCCC/C=C\C/C=C\CCCCCCCC(=O)OC(COC(C)=O)COC(=O)CCCCCCCCCCCCCCC` (racemic) [PLAG, 1-palmitoyl-2-linoleoyl-3-acetyl-rac-glycerol], the “level of neutrophil recruitment in back skin (NIMP-R14 immunohistochemistry)” value in assay [1] was “significantly lower than that in the psoriasis-induced group”. For the same compound, in assay [2], the “IL-17 expression in the skin blood vessels (immunohistochemistry)” value is given as “significantly inhibited”. Moreover, the “thickness of the back skin (caliper)” value in assay [3] (PLAG 250 mg/kg/day oral day 0 to day 4 with Aldara cream 40 mg/day, day 5) is on record as “significantly decreased”. For the same compound, the “keratosis on the back of the mice” value in assay [3] (PLAG 250 mg/kg/day oral day 0 to day 4 with Aldara cream (5% IMQ) 40 mg/day, photographed day 5) is given as “remarkably alleviated”. For the same compound, in assay [4], the “hair follicles (H&E)” value is listed as “present as in the control group” and the “neutrophils between the stratum corneum (H&E)” value was “not found”. Further, the “thicknesses of the stratum corneum and the epidermis (H&E)” value in assay [4] (vs psoriasis-induced group) is on record as “remarkably reduced”. The size of spleen entry in assay [5] (ruler) was “increased compared to the control group”. Besides, the weight of spleen result in assay [5] (scale) is reported as “maintained the same as the weight of spleen of the control group”.

These data come from patent US20190262300A1, “COMPOSITION FOR PREVENTING OR TREATING PSORIASIS CONTAINING MONOACETYL DIACYLGLYCEROL COMPOUND” (ENZYCHEM LIFESCIENCES CORPORATION, priority 2016, published 2019).
